# Measured values taken from ChEMBL document CHEMBL3045838, “Synthesis, antimicrobial and antioxidant activities of 2-[1-{3,5-diaryl-4,5-dihydro-1H-pyrazolenyl}]-4-(4-nitrophenyl)-[1,3]-thiazoles” (2013).
# Tests used:
# Type in all cases: functional
# [1] = system: Aspergillus flavus; assay: Antifungal activity against Aspergillus flavus NCIM 524 assessed as growth inhibition at 1.56 to 25 ug/mL
# [2] = system: Trichophyton mentagrophytes; assay: Antifungal activity against Trichophyton mentagrophytes assessed as growth inhibition by serial plate dilution method
# [3] = system: Aspergillus fumigatus; assay: Antifungal activity against Aspergillus fumigatus NCIM 902 assessed as growth inhibition at 1.56 to 25 ug/mL
# [4] = system: Talaromyces marneffei; assay: Antifungal activity against Talaromyces marneffei assessed as growth inhibition by serial plate dilution method
# [5] = system: Pseudomonas aeruginosa; assay: Antibacterial activity against Pseudomonas aeruginosa ATCC 27853 assessed as growth inhibition at 1.56 to 25 ug/mL
# [6] = system: Escherichia coli; assay: microbe, parasite or virus in culture; details: ATCC 25922
# Description: Antibacterial activity against Escherichia coli ATCC 25922 assessed as growth inhibition by serial plate dilution method
# [7] = system: Escherichia coli; assay: Antibacterial activity against Escherichia coli ATCC 25922 assessed as growth inhibition at 1.56 to 25 ug/mL
# [8] = system: Staphylococcus aureus; assay: Antibacterial activity against Staphylococcus aureus ATCC 25923 assessed as growth inhibition at 1.56 to 25 ug/mL
# [9] = system: Staphylococcus aureus; assay: Antibacterial activity against Staphylococcus aureus ATCC 25923 assessed as growth inhibition by serial plate dilution method
# [10] = system: Klebsiella pneumoniae; assay: Antibacterial activity against Klebsiella pneumoniae assessed as growth inhibition at 1.56 to 25 ug/mL
# [11] = system: Aspergillus fumigatus; assay: Antifungal activity against Aspergillus fumigatus NCIM 902 assessed as growth inhibition by serial plate dilution method
# [12] = system: Trichophyton mentagrophytes; assay: Antifungal activity against Trichophyton mentagrophytes assessed as growth inhibition at 1.56 to 25 ug/mL
# [13] = system: Pseudomonas aeruginosa; assay: Antibacterial activity against Pseudomonas aeruginosa ATCC 27853 assessed as growth inhibition by serial plate dilution method
# [14] = system: Radical scavenging activity; assay: Antioxidant activity assessed as inhibition of DPPH radical generation at 4000 ug/mL after 15 min by UV-Vis spectrophotometric analysis relative to control; details: at 4000 µg/mL
# [15] = system: Klebsiella pneumoniae; assay: Antibacterial activity against Klebsiella pneumoniae assessed as growth inhibition by serial plate dilution method
# [16] = system: Talaromyces marneffei; assay: Antifungal activity against Talaromyces marneffei assessed as growth inhibition at 1.56 to 25 ug/mL
# [17] = system: Aspergillus flavus; assay: Antifungal activity against Aspergillus flavus NCIM 524 assessed as growth inhibition by serial plate dilution method
compound,measurement,setting,value
COc1ccc(-c2ccc(C3CC(c4ccc(OC)c(OC)c4)=NN3c3nc(-c4ccc([N+](=O)[O-])cc4)cs3)o2)c([N+](=O)[O-])c1 (stereo not drawn),diameter of the inhibition zone (DIZ),[1],11 mm
same,MIC,[2],12.5 µg/mL
same,diameter of the inhibition zone (DIZ),[3],11 mm
same,MIC,[4],12.5 µg/mL
same,diameter of the inhibition zone (DIZ),[5],11 mm
same,MIC,[6],12.5 µg/mL
same,diameter of the inhibition zone (DIZ),[7],11 mm
same,diameter of the inhibition zone (DIZ),[8],11 mm
same,MIC,[9],12.5 µg/mL
same,diameter of the inhibition zone (DIZ),[10],11 mm
same,MIC,[11],12.5 µg/mL
same,diameter of the inhibition zone (DIZ),[12],11 mm
same,MIC,[13],12.5 µg/mL
same,inhibition,[14],86%
same,MIC,[15],12.5 µg/mL
same,diameter of the inhibition zone (DIZ),[16],11 mm
same,MIC,[17],12.5 µg/mL
COc1ccc(C2=NN(c3nc(-c4ccc([N+](=O)[O-])cc4)cs3)C(c3ccc(-c4ccc(Cl)cc4Cl)o3)C2)cc1OC (stereo not drawn),diameter of the inhibition zone (DIZ),[1],16 mm
same,MIC,[2],6.25 µg/mL
same,diameter of the inhibition zone (DIZ),[3],16 mm
same,MIC,[4],6.25 µg/mL
same,diameter of the inhibition zone (DIZ),[5],16 mm
same,MIC,[6],6.25 µg/mL
same,diameter of the inhibition zone (DIZ),[7],16 mm
same,diameter of the inhibition zone (DIZ),[8],16 mm
same,MIC,[9],6.25 µg/mL
same,diameter of the inhibition zone (DIZ),[10],16 mm
same,MIC,[11],6.25 µg/mL
same,diameter of the inhibition zone (DIZ),[12],16 mm
same,MIC,[13],6.25 µg/mL
same,inhibition,[14],86%
same,MIC,[15],6.25 µg/mL
same,diameter of the inhibition zone (DIZ),[16],16 mm
same,MIC,[17],6.25 µg/mL
COc1ccc(C2=NN(c3nc(-c4ccc([N+](=O)[O-])cc4)cs3)C(c3ccc(SC)cc3)C2)cc1OC (stereo not drawn),diameter of the inhibition zone (DIZ),[1],< 10 mm
same,MIC,[2],25 µg/mL
same,diameter of the inhibition zone (DIZ),[3],< 10 mm
same,MIC,[4],25 µg/mL
same,diameter of the inhibition zone (DIZ),[5],< 10 mm
same,MIC,[6],25 µg/mL
same,diameter of the inhibition zone (DIZ),[7],< 10 mm
same,diameter of the inhibition zone (DIZ),[8],< 10 mm
same,MIC,[9],25 µg/mL
same,diameter of the inhibition zone (DIZ),[10],< 10 mm
same,MIC,[11],25 µg/mL
same,diameter of the inhibition zone (DIZ),[12],< 10 mm
same,MIC,[13],25 µg/mL
same,inhibition,[14],86%
same,MIC,[15],25 µg/mL
same,diameter of the inhibition zone (DIZ),[16],< 10 mm
same,MIC,[17],25 µg/mL
COc1ccc(C2=NN(c3nc(-c4ccc([N+](=O)[O-])cc4)cs3)C(c3ccc(SC)cc3)C2)cc1 (stereo not drawn),diameter of the inhibition zone (DIZ),[1],< 10 mm
same,MIC,[2],25 µg/mL
same,diameter of the inhibition zone (DIZ),[3],< 10 mm
same,MIC,[4],25 µg/mL
same,diameter of the inhibition zone (DIZ),[5],< 10 mm
same,MIC,[6],25 µg/mL
same,diameter of the inhibition zone (DIZ),[7],< 10 mm
same,diameter of the inhibition zone (DIZ),[8],< 10 mm
same,MIC,[9],25 µg/mL
same,diameter of the inhibition zone (DIZ),[10],< 10 mm
same,MIC,[11],25 µg/mL
same,diameter of the inhibition zone (DIZ),[12],< 10 mm
same,MIC,[13],25 µg/mL
same,inhibition,[14],79%
same,MIC,[15],25 µg/mL
same,diameter of the inhibition zone (DIZ),[16],< 10 mm
same,MIC,[17],25 µg/mL
